Columns and labels:
Pyricularia oryzae = experiment: microbe, parasite or virus in culture; format: cell-based; conditions: 168 h, read-out: % control compared to the untreated check (radial growth)
Rhizoctonia solani = Rhizoctonia solani (rice sheath blight/potato black scurf) in vitro test, radial growth on Potato Dextrose Agar; format: cell-based; conditions: 168 h, 300 ppm, seven days, 25° C., read-out: % control compared to the untreated check (radial growth)
Alternaria solani [1] = experiment: Alternaria solani (early blight of tomato/potato) in vitro test, radial growth on Potato Dextrose Agar; format: cell-based; conditions: 168 h, 300 ppm, seven days, 25° C., read-out: % control compared to the untreated check (radial growth)
Botrytis cinera = experiment: Greenhouse Botrytis cinera test in tomato, preventive; format: in vivo; conditions: 24 h, plants sprayed one day before inoculation, read-out: Efficacy (% control), disease severity vs untreated check
Alternaria solani [2] = experiment: Greenhouse Alternaria solani test in tomato, preventive; format: in vivo; conditions: 24 h, tomato plants sprayed one day before inoculation, read-out: Efficacy (% control), disease severity vs untreated check
Description: Compounds were dissolved in 2% DMSO/Acetone & then mixed with water to calibrated spray volume of 50 ml. This 50 ml spray solution was poured into the spray bottles for further applications. To test the preventive activity of compounds, healthy young Tomato plants raised in the greenhouse were sprayed with active compound preparation at the stated application rates inside the spray cabinets using hallowcone nozzles. One day after treatment, the plants were inoculated with spore suspension (2% Malt) containing 0.24×10^6 Alternaria solani inoculum. The inoculated plants were then kept in greenhouse chamber at 22-24° C. temperature and 90-95% relative humidity for disease expression. […] Efficacy (% control) of the compounds was calculated by comparing the disease rating in the treatment with untreated control. The sprayed plants were also assessed for compound's phytotoxic effects by recording symptoms like necrosis, chlorosis and stunting.

Colletotrichum capsici = Colletotrichum capsici (anthracnose) in vitro test, radial growth on Potato Dextrose Agar; format: cell-based; conditions: Colletotrichum truncatum, 168 h; 300 ppm; seven days, 25° C.; read-out: % control compared to the untreated check (radial growth)
Septoria lycopersici = Septoria lycopersici (leaf spot of tomato) in vitro test, radial growth on Potato Dextrose Agar; format: cell-based; conditions: 168 h, seven days, 25° C., read-out: % control compared to the untreated check (radial growth)
Fusarium culmorum = Fusarium culmorum (foot rot of cereals) in vitro test, radial growth on Potato Dextrose Agar; format: cell-based; conditions: Fusarium culmorum, 168 h, read-out: % control compared to the untreated check (radial growth)
Botrytis cinerea = Botrytis cinerea (gray mold) in vitro test, radial growth on Potato Dextrose Agar; format: cell-based; conditions: 168 h, 300 ppm, seven days, 22° C., read-out: % (control) compared to the untreated check (radial growth)

Compound	inhibition of growth at 300 ppm (Pyricularia oryzae)	inhibition of growth at 300 ppm (Rhizoctonia solani)	inhibition of growth at 300 ppm (Alternaria solani [1])	pest or weed control at 500 ppm (Botrytis cinera)	pest or weed control at 500 ppm (Alternaria solani [2])	inhibition of growth at 300 ppm (Colletotrichum capsici)	inhibition of growth at 300 ppm (Septoria lycopersici)	inhibition of growth at 300 ppm (Fusarium culmorum)	inhibition of growth at 300 ppm (Botrytis cinerea)
CCN(C)C=Nc1cc(C)c(C(OC)c2ccccc2)cc1C (centres unmarked) [Compound 2, N-ethyl-N′-(4-(methoxy(phenyl)methyl)-2,5-dimethylphenyl)-N-methylformimidamide]	> 75%	> 80%	> 75%	70 to 100%	70 to 100%	–	–	–	–
CCN(C)C=Nc1cc(C)c(Cc2ccccc2S(C)(=O)=O)cc1C [Compound 25, N′-(2,5-dimethyl-4-(2-(methylsulfonyl)benzyl)phenyl)-N-ethyl-N-methylformimidamide]	> 75%	> 80%	> 75%	70 to 100%	70 to 100%	> 80%	> 70%	–	–
CCN(C)C=Nc1cc(C)c(/C(=N\C)c2ccccc2)cc1C [Compound 31, N′-(2,5-dimethyl-4-((Z)-(methylimino)(phenyl)methyl)phenyl)-N-ethyl-N-methylformimidamide]	> 75%	> 80%	> 75%	70 to 100%	70 to 100%	–	> 70%	75%	–
Cc1cc(N=CN2CCOCC2)c(Cl)cc1Cc1ccccc1Cl [Compound 40, N-(2-chloro-4-(2-chlorobenzyl)-5-methylphenyl)-1-morpholinomethanimine]	–	–	–	70 to 100%	70 to 100%	–	–	–	> 80%
CCN(C)C=Nc1cc(F)c(Cc2ccc(C)cc2)cc1C [Compound 175, N-ethyl-N′-(5-fluoro-2-methyl-4-(4-methylbenzyl)phenyl)-N-methylformimidamide]	> 75%	> 80%	> 75%	–	70 to 100%	> 80%	> 70%	75%	> 80%
CCN(C)C=Nc1cc(C)c(Cc2cc(F)cc(Cl)c2)cc1Cl [Compound 176, N′-(2-chloro-4-(3-chloro-5-fluorobenzyl)-5-methylphenyl)-N-ethyl-N-methylformimidamide]	> 75%	> 80%	> 75%	–	70 to 100%	> 80%	> 70%	75%	> 80%
CCN(C)C=Nc1cc(C)c(Cc2cc(F)ccc2Cl)cc1Cl [Compound 178, N′-(2-chloro-4-(2-chloro-5-fluorobenzyl)-5-methylphenyl)-N-ethyl-N-methylformimidamide]	> 75%	> 80%	> 75%	–	70 to 100%	> 80%	> 70%	75%	> 80%
CCN(C)C=Nc1cc(C)c(Cc2ccc(Cl)cc2Cl)cc1Cl [Compound 179, N′-(2-chloro-4-(2,4-dichlorobenzyl)-5-methylphenyl)-N-ethyl-N-methylformimidamide]	> 75%	> 80%	> 75%	70 to 100%	70 to 100%	> 80%	–	75%	> 80%
CCN(C)C=Nc1cc(C)c(Cc2ccc(F)cc2F)cc1Cl [Compound 180, N′-(2-chloro-4-(2,4-difluorobenzyl)-5-methylphenyl)-N-ethyl-N-methylformimidamide]	> 75%	> 80%	> 75%	70 to 100%	70 to 100%	> 80%	–	75%	> 80%

Reference: patent publication US11155517B2, “4-substituted phenylamine derivatives and their use to protect crops by fighting undesired phytopathogenic micoorganisms” (PI INDUSTRIES LTD., priority 2016, dated 2021)
